Patent US10287301B2 (Achillion Pharmaceuticals, Inc., priority 2015, dated 2019)
Where two headings read alike, the source gives them in different places.

Molecular target: Human Factor D (Homo sapiens (Human), UniProt P00746)
Test: Human Factor D Assay
Assay type: biochemical
Details: read-out: IC50
Method: Human Factor D (purified from human serum, Complement Technology, Inc.) at 80 nM final concentration was incubated with test compound at various concentrations for 5 minutes at room temperature in 50 mM Tris, 1M NaCl, pH 7.5. A synthetic substrate Z-L-Lys-SBzl and DTNB (Ellman's reagent) are added to final concentrations of 100 μM each. […] IC50 values are calculated by nonlinear regression of complement Factor D reaction rates as a function of test compound concentration.

[1] = Human Factor D 80 nM, substrate Z-L-Lys-SBzl

Sequence of Human Factor D (P00746 26-253): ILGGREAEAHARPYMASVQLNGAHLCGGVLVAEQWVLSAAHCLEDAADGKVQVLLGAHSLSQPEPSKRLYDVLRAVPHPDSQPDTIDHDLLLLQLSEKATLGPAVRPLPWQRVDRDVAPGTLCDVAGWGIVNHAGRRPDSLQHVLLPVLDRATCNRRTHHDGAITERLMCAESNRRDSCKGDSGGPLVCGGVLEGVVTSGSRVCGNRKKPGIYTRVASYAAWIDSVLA

Row | Compound | IC50 (Human Factor D, Table 3) [µM] | IC50 [1] [µM]
1 | CC(=O)c1nn(CC(=O)N2C(C(=O)Nc3cccc(Br)n3)C[C@@]3(CN(C)C)C[C@@H]23)c2ccc(-c3cnc(C)nc3)cc12 (stereo in doubt) [Compound 577, (1R,3S,5R)-2-(2-(3-Acetyl-5-(2-methylpyrimidin-5-yl)-1H-indazol-1-yl)acetyl)-N-(6-bromopyridin-2-yl)-5-((dimethylamino)methyl)-2-azabicyclo[3.1.0]hexane-3-carboxamide] | < 1 | –
2 | CC(=O)c1nn(CC(=O)N2C(C(=O)Nc3cccc(Br)n3)C[C@]3(CN(C)C)C[C@H]23)c2ccc(-c3cnc(C)nc3)cc12 (stereo in doubt) [Compound 578, (1S,3S,5S)-2-(2-(3-acetyl-5-(2-methylpyrimidin-5-yl)-1H-indazol-1-yl)acetyl)-N-(6-bromopyridin-2-yl)-5-((dimethylamino)methyl)-2-azabicyclo[3.1.0]hexane-3-carboxamide] | < 1 | –
3 | CC(=O)c1nn(CC(=O)N2C[C@@](F)(CF)CC2C(=O)Nc2nc(Br)ccc2C)c2ccc(-c3cnc(N)nc3)cc12 (stereo in doubt) [Compound 579, (2S,4R)-1-(2-(3-acetyl-5-(2-aminopyrimidin-5-yl)-1H-indazol-1-yl)acetyl)-N-(6-bromo-3-methylpyridin-2-yl)-4-fluoro-4-(fluoromethyl) pyrrolidine-2-carboxamide] | < 1 | –
4 | NC(=O)c1nn(CC(=O)N2C[C@H](F)C[C@H]2C(=O)Nc2cccc(-c3ccccc3Cl)c2F)c2ccc(-c3cn[nH]c3)cc12 [Compound 1] | – | < 1
5 | NC(=O)c1nn(CC(=O)N2C[C@H](F)C[C@H]2C(=O)Nc2cccc(-c3ccccc3Cl)c2F)c2ccc(-c3cncnc3)cc12 [Compound 2] | – | < 1
6 | NC(=O)c1nn(CC(=O)N2C[C@H](F)C[C@H]2C(=O)Nc2cccc(Br)n2)c2ccc(-c3ccc(N4CCOCC4)cc3)cc12 [Compound 3, 1-(2-((2S,4R)-2-((6-Bromopyridin-2-yl)carbamoyl)-4-fluoropyrrolidin-1-yl)-2-oxoethyl)-5-(4-morphlinophenyl)-1H-indazole-3-carboxamide] | – | < 1
7 | NC(=O)c1nn(CC(=O)N2[C@@H]3C[C@@H]3C[C@H]2C(=O)Nc2cccc(Br)n2)c2ccc(-c3cncnc3)cc12 [Compound 4] | – | < 1
8 | NC(=O)c1nn(CC(=O)N2C[C@H](F)C[C@H]2C(=O)Nc2cccc(Br)n2)c2ccc(-c3cncnc3)cc12 [Compound 5, 1-(2-((2S,4R)-2-(6-bromopyridin-2-ylcarbamoyl)-4-fluoropyrrolidin-1-yl)-2-oxoethyl)-5-(pyrimidin-5-yl)-1H-indazole-3-carboxamide] | – | < 1
9 | NC(=O)c1nn(CC(=O)N2[C@@H]3C[C@@H]3C[C@H]2C(=O)Nc2cccc(-c3ccccc3Cl)c2F)c2ccc(-c3cncnc3)cc12 [Compound 6, 1-(2-((1R,3S,5R)-3-((2′-Chloro-2-fluoro-[1,1′-biphenyl]-3-yl)carbamoyl)-azabicyclo[3.1.0]hexan-2-yl)-2-oxoethyl)-5-(pyrimidin-5-yl)-1H-indazole-3-carboxamide] | – | < 1
10 | NC(=O)c1nn(CC(=O)N2[C@@H]3C[C@@H]3C[C@H]2C(=O)Nc2cccc(-c3ccccc3Cl)c2F)c2ccc(-c3ncccn3)cc12 [Compound 7, 1-(2-((1R,3S,5R)-3-(2′-chloro-2-fluorobiphenyl-3-ylcarbamoyl)-2-azabicyclo[3.1.0]hexan-2-yl)-2-oxoethyl)-5-(pyrimidin-2-yl)-1H-indazole-3-carboxamide] | – | < 1
11 | NC(=O)c1nn(CC(=O)N2[C@@H]3C[C@@H]3C[C@H]2C(=O)Nc2cccc(OC(F)(F)F)c2F)c2ccc(-c3cncnc3)cc12 [Compound 8, 1-(2-((1R,3S,5R)-3-(2-fluoro-3-(trifluoromethoxy)phenylcarbamoyl)-2-azabicyclo[3.1.0]hexan-2-yl)-2-oxoethyl)-5-(pyrimidin-5-yl)-1H-indazole-3-carboxamide] | – | < 1
12 | NC(=O)c1nn(CC(=O)N2C[C@H](F)C[C@H]2C(=O)Nc2cccc(OC(F)(F)F)c2F)c2ccc(-c3cncnc3)cc12 [Compound 9, 1-(2-((2S,4R)-4-fluoro-2-(2-fluoro-3-(trifluoromethoxy)phenylcarbamoyl)pyrrolidin-1-yl)-2-oxoethyl)-5-(pyrimidin-5-yl)-1H-indazole-3-carboxamide] | – | < 1
13 | NC(=O)c1nn(CC(=O)N2C[C@H](F)C[C@H]2C(=O)Nc2cccc(-c3ccccc3Cl)c2F)c2ccc(-c3cnc(N4CCCC4)nc3)cc12 [Compound 10] | – | < 1
14 | NC(=O)c1nn(CC(=O)N2[C@@H]3C[C@@H]3C[C@H]2C(=O)Nc2cccc(Br)n2)c2ccc(-c3cnc(N4CCCC4)nc3)cc12 [Compound 11] | – | < 1
15 | NC(=O)c1nn(CC(=O)N2C[C@H](F)C[C@H]2C(=O)Nc2cccc(-c3ccccc3Cl)c2F)c2ccc(-c3ccc(F)nc3)cc12 [Compound 12, 1-(2-((2S,4R)-2-((2′-Chloro-2-fluoro-[1,1′-biphenyl]-3-yl)carbamoyl)-4-fluoropyrrolidin-1-yl)-2-oxoethyl)-5-(6-fluoropyridin-3-yl)-1H-indazole-3-carboxamide] | – | < 1
16 | NC(=O)c1nn(CC(=O)N2[C@@H]3C[C@@H]3C[C@H]2C(=O)Nc2cccc(-c3ccccc3Cl)c2F)c2ccc(-c3ccc(F)nc3)cc12 [Compound 13, 1-(2-((1R,3S,5R)-3-(2′-chloro-2-fluorobiphenyl-3-ylcarbamoyl)-2-azabicyclo[3.1.0]hexan-2-yl)-2-oxoethyl)-5-(6-fluoropyridin-3-yl)-1H-indazole-3-carboxamide] | – | < 1
17 | CC(=O)c1cn(CC(=O)N2C[C@H](F)C[C@H]2C(=O)Nc2cccc(Br)n2)c2ccc(-c3cncnc3)cc12 [Compound 14, (2S,4R)-1-(2-(3-acetyl-5-(pyrimidin-5-yl)-1H-indol-1-yl)acetyl)-N-(6-bromopyridin-2-yl)-4-fluoropyrrolidine-2-carboxamide] | – | < 1
18 | CC(=O)c1cn(CC(=O)N2[C@@H]3C[C@@H]3C[C@H]2C(=O)Nc2cccc(-c3ccccc3Cl)c2F)c2ccc(-c3cncnc3)cc12 [Compound 15, (1R,3S,5R)-2-(2-(3-acetyl-5-(pyrimidin-5-yl)-1H-indol-1-yl)acetyl)-N-(2′-chloro-2-fluorobiphenyl-3-yl)-2-azabicyclo[3.1.0] hexane-3-carboxamide] | – | < 1
19 | CC(=O)c1cn(CC(=O)N2C[C@H](F)C[C@H]2C(=O)Nc2cccc(-c3ccccc3Cl)c2F)c2ccc(N3CCN(C(C)=O)CC3)cc12 [Compound 16, (2S,4R)-1-(2-(3-acetyl-5-(4-acetylpiperazin-1-yl)-1H-indol-1-yl)acetyl)-N-(2′-chloro-2-fluorobiphenyl-3-yl)-4-fluoropyrrolidine-2-carboxamide] | – | < 1
20 | CC(=O)c1cn(CC(=O)N2[C@@H]3C[C@@H]3C[C@H]2C(=O)Nc2cccc(Br)n2)c2ccc(-c3cncnc3)cc12 [Compound 17, (1R,3S,5R)-2-(2-(3-acetyl-5-(pyrimidin-5-yl)-1H-indol-1-yl)acetyl)-N-(6-bromopyridin-2-yl)2-azabicyclo[3.1.0] hexane-3-carboxamide] | – | < 1
21 | NC(=O)c1nn(CC(=O)N2C[C@H](F)C[C@H]2C(=O)NCc2cccc(Cl)c2F)c2cnc(-c3cncnc3)cc12 [Compound 18, 1-(2-((2S,4R)-2-(3-chloro-2-fluorobenzyl-carbamoyl)-4-fluoropyrrolidin-1-yl)-2-oxoethyl)-5-(pyrimidin-5-yl)-1H-pyrazolo[3,4-c]pyridine-3-carboxamide] | – | < 1
22 | NC(=O)c1nn(CC(=O)N2C[C@H](F)C[C@H]2C(=O)Nc2cccc(-c3ccccc3Cl)c2F)c2cnc(-c3cncnc3)cc12 [Compound 19, 1-(2-((2S,4R)-2-((2′-Chloro-2-fluoro-[1,1′-biphenyl]-3-yl)carbamoyl)-4-fluoropyrrolidin-1-yl)-2-oxoethyl)-5-(pyrimidin-5-yl)-1H-pyrazolo[3,4-c]pyridine-3-carboxamide] | – | < 1
23 | CC(=O)c1cn(CC(=O)N2C[C@H](F)C[C@H]2C(=O)Nc2cccc(-c3ccccc3Cl)c2F)c2ccc(-c3ccnnc3)cc12 [Compound 20, (2S,4R)-1-(2-(3-Acetyl-5-(pryridazin-4-yl)-1H-indol-1-yl)acetyl)-N-(2′-chloro-2-fluoro-[1,1′-biphenyl]-3-yl)-4-fluoropyrrolidine-2-carboxamide] | – | < 1
24 | COc1ncc(-c2ccc3c(c2)c(C(C)=O)cn3CC(=O)N2C[C@H](F)C[C@H]2C(=O)Nc2cccc(Br)n2)cn1 [Compound 21, (2S,4R)-1-(2-(3-acetyl-5-(2-methoxypyrimidin-5-yl)-1H-indol-1-yl)acetyl)-N-(6-bromopyridin-2-yl)-4-fluoropyrrolidine-2-carboxamide] | – | < 1
25 | CN1CC=C(c2ccc3c(c2)c(C(N)=O)nn3CC(=O)N2C[C@H](F)C[C@H]2C(=O)Nc2cccc(Br)n2)CC1 [Compound 22, 1-(2-((2S,4R)-2-(6-bromopyridin-2-ylcarbamoyl)-4-fluoropyrrolidin-1-yl)-2-oxoethyl)-5-(1-methyl-1,2,3,6-tetrahydropyridin-4-yl)-1H-indazole-3-carboxamide] | – | < 1
26 | NC(=O)c1nn(CC(=O)N2C[C@H](F)C[C@H]2C(=O)Nc2cccc(Br)n2)c2ccc(-c3ccnnc3)cc12 [Compound 25, 1-(2-((2S,4R)-2-(6-bromopyridin-2-ylcarbamoyl)-4-fluoropyrrolidin-1-yl)-2-oxoethyl)-5-(pyridazin-4-yl)-1H-indazole-3-carboxamide] | – | < 1
27 | CC(=O)c1cn(CC(=O)N2C[C@H](F)C[C@H]2C(=O)Nc2cccc(-c3ccccc3Cl)c2F)c2ccc(-c3cnc(N4CCCC4)nc3)cc12 [Compound 26, (2S,4R)-1-(2-(3-acetyl-5-(2-(pyrrolidin-1-yl)pyrimidin-5-yl)-1H-indol-1-yl)acetyl)-N-(2′-chloro-2-fluorobiphenyl-3-yl)-4-fluoropyrrolidine-2-carboxamide] | – | < 1
